The values below come from publication doi:10.1101/2020.06.20.162875v1 (biorxiv, 2020).

Assay [1] deals with T1, PNA (peanut lectin, peanut agglutinin) (Arachis hypogaea, UniProt P02872).
T1 sequence (P02872 24-259): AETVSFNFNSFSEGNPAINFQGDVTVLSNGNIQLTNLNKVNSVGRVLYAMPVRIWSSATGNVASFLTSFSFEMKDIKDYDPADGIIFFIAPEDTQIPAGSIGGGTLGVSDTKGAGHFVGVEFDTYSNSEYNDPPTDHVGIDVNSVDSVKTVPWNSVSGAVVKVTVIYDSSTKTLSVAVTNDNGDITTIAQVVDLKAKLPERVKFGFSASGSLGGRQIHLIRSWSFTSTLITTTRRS
The assay is described as follows: isothermal titration calorimetry. It is filed as binding.

In assay [2] the target is T1, PNA (peanut lectin, peanut agglutinin). The assay is described as follows: isothermal titration calorimetry. It is filed as binding. This is another data set of the same source. A general note: In ITC the heat of successive injections is recorded.

Like-named read-outs stand apart in the source and are kept apart here.

The Kd is a measure of binding affinity in units of concentration. High values mean lower affinity, low ones higher affinity.

Take `OC[C@H]1O[C@@H](O[C@H]2[C@H](O)[C@@H](O)C(O)O[C@@H]2CO)[C@H](O)[C@@H](O)[C@H]1O` (some centres unmarked) [Lactose]: the Kd in assay [1] (298 K, independent single-site model, reference compound) stood at 644 µM. As to `CO[C@H]1O[C@H](Cn2cc(CNC(=O)CCC(=O)N[C@@H]3O[C@H](CO)[C@H](O)[C@H](O)[C@H]3O)nn2)[C@@H](O)[C@H](O)[C@H]1O` [NGS], binding in assay [2] was put at a Kd of 1620 µM. On the same count and under the same terms, in the case of `CO[C@H]1O[C@H](Cn2cc(CSC[C@H]3O[C@@H](S[C@@H]4O[C@H](CO)[C@H](O)[C@H](O)[C@H]4O)[C@H](O)[C@@H](O)[C@@H]3O)nn2)[C@@H](O)[C@H](O)[C@H]1O` [STGD] it was 420 µM; in that of `C#CCSC[C@H]1O[C@@H](S[C@@H]2O[C@H](CO)[C@H](O)[C@H](O)[C@H]2O)[C@H](O)[C@@H](O)[C@@H]1O` [STG], 552 µM. In assay [1], `OC[C@H]1O[C@@H](S[C@@H]2O[C@H](CO)[C@H](O)[C@H](O)[C@H]2O)[C@H](O)[C@@H](O)[C@H]1O` [TDG] returned an equilibrium dissociation constant (Kd) of 524 µM.

Compound `O=C(CCC(=O)N[C@@H]1O[C@H](CO)[C@H](O)[C@H](O)[C@H]1O)NCc1cn([C@H]2CO[C@H]3[C@@H]2OC[C@@H]3n2cc(CNC(=O)CCC(=O)N[C@@H]3O[C@H](CO)[C@H](O)[C@H](O)[C@H]3O)nn2)nn1` [diNGS] came in with a dissociation constant Kd in assay [2] of 698 µM. Compound `O=C(NCc1cn(C2COC3C2OCC3n2cc(CNC(=O)[C@H](O)[C@@H](O)C(=O)N[C@@H]3O[C@H](CO)[C@H](O)[C@H](O)[C@H]3O)nn2)nn1)[C@H](O)[C@@H](O)C(=O)N[C@@H]1O[C@H](CO)[C@H](O)[C@H](O)[C@H]1O` (some centres unmarked) [diNGT] showed a Kd in assay [2] of 544 µM. Regarding `OC[C@H]1O[C@@H](S[C@@H]2O[C@H](CSCc3cn(C[C@H]4O[C@H](O[C@H]5O[C@H](Cn6cc(CSC[C@H]7O[C@@H](S[C@@H]8O[C@H](CO)[C@H](O)[C@H](O)[C@H]8O)[C@H](O)[C@@H](O)[C@@H]7O)nn6)[C@@H](O)[C@H](O)[C@H]5O)[C@H](O)[C@@H](O)[C@@H]4O)nn3)[C@@H](O)[C@H](O)[C@H]2O)[C@H](O)[C@@H](O)[C@H]1O` [diSTGD], in assay [2], the Kd amounted to 161 µM.
